For 35 compounds, EC50 and inhibition of growth results are on record in patent US20210206744A1, “BENZIMIDAZOLE COMPOUNDS AS AGRICULTURAL CHEMICALS” (REDAG CROP PROTECTION LTD, priority 2017, published 2021).

Molecules are shown by their SMILES.

The test system of one assay is Phytophthora cactorum. Kind of assay: 96 well plate test. To be noted: Phytophthora cactorum; agar amended to 2, 0.2, 0.02 and 0.002 ppm, 18° C., assessed after 2 to 3 days. Format: cell-based. On the procedure:
Compounds were screened in 96 well plates with 10 compounds per plate. Each compound was screened using agar amended to 2, 0.2, 0.02 and 0.002 ppm, with proline at 50 and 10 ppm and 0.2% DMSO used as controls. Each test concentration and standard was replicated twice on a plate. Compounds were screened against Phytophthora cactorum. The agar used in the test is a 1% potato dextrose agar. 1000 spores/mL agar were added to the appropriate agar.
A ×10 stock solution in 2% DMSO was produced for each dose i.e. 20, 2, 0.2 and 0.02 ppm, and 10 μl of this added to the appropriate wells on the plate. An equivalent amount of 2% DMSO and proline stock at 500 and 100 ppm were added for the controls. To each well 90 μl of the appropriate agar spore suspension was added to give the required final well concentrations. Plates were incubated at room temperature (18° C.) and assessed after 2 to 3 days. The amount of pathogen growth in each well was compared to the DMSO controls and an EC50 concentration was calculated. The results are provided in Table 1 in which G represents no control detected at 2 ppm, F represents an EC50 of ≥2 ppm, and E represents an EC50 of less than 2 ppm.

For the next assay, the system named is Pythium ultimum. Kind of assay: Amended agar assay. Format: cell-based. Conditions: Globisporangium ultimum; potato dextrose agar amended with compound at 2 ppm, 18° C., 2 to 7 days; read-out: % control Pythium ultimum (% reduction in colony growth compared to the control plate). On the procedure:
Amended Agar Assay Testing was carried out on potato dextrose agar (PDA) amended with each compound at a test concentration of 2 ppm. Amended agar was poured into three replicate 9 cm petri dishes. Each replicate dish was inoculated in the centre with a 5 mm agar plug taken from the leading edge of a culture aged between 2 and 7 days old; the age of the culture was dependent on the growth rate of the pathogen being tested. The test pathogen was Pythium ultimum. Plates were incubated at 18° C. and the diameter of each colony measured before growth on the fastest growing plate reached the plate edge. This varied between 2 and 7 days depending on the growth rate of test pathogens. The % reduction in colony growth compared to the control plate was calculated. The results are provided in Table 1, in which D represents no control detected at this concentration; C represents up to 50% control; B from 50 to 99% control; and A represents a control of greater than 99%, i.e. no detectable colony growth.

A word on the EC50: it is the concentration at which the effect is half-maximal. `Cn1nnnc1-n1c(OCc2cccc(NC(=O)C3CC3)n2)nc2c(Cl)cccc21` [Compound 1, N-(6-(((4-Chloro-1-(1-methyl-1H-tetrazol-5-yl)-1H-benzo[d]imidazol-2-yl)oxy)methyl)pyridin-2-yl)cyclopropanecarboxamide] gave an EC50 in the assay on Phytophthora cactorum of less than 2 µg/mL. Further, the inhibition of growth at 2 ppm in the assay on Pythium ultimum is more than 99%.

`Cn1nnnc1-n1c(OCc2cccc(NC(=O)COc3ccccc3)n2)nc2c(Cl)cccc21` [Compound 2] displayed an EC50 with Phytophthora cactorum of less than 2 µg/mL. Further, the inhibition of growth at 2 ppm with Pythium ultimum was more than 99%.

Turning to `Cn1nnnc1-n1c(OCc2cccc(NC(=O)OC(C)(C)C)n2)nc2c(Cl)cccc21` [Compound 3], the EC50 in the assay on Phytophthora cactorum is less than 2 µg/mL. For the same compound, the inhibition of growth at 2 ppm in the assay with Pythium ultimum was more than 99%.

As for `COc1cc(F)cc2c1nc(OCc1cccc(NC(=O)OC(C)(C)C)n1)n2-c1nnnn1C` [Compound 4], the concentration giving a half-maximal response (EC50) in the assay with Phytophthora cactorum was less than 2 µg/mL. In the assay on Pythium ultimum, the inhibition of growth at 2 ppm is more than 99%.

On to `COc1cc(F)cc2c1nc(OCc1cccc(NC(=O)COc3ccccc3)n1)n2-c1nnnn1C` [Compound 5], for which, in the assay on Phytophthora cactorum, the EC50 was less than 2 µg/mL. For the same compound, the inhibition of growth at 2 ppm in the assay on Pythium ultimum was more than 99%.

For `COc1cc(F)cc2c1nc(OCc1cccc(NC(=O)C3CC3)n1)n2-c1nnnn1C` [Compound 6], in the assay with Phytophthora cactorum, the EC50 was not below 2 µg/mL. In addition, the inhibition of growth at 2 ppm in the assay on Pythium ultimum was in the range of 50 to 99%.

The compound `C=CCOc1cccc2c1nc(OCc1cccc(NC(=O)OC(C)(C)C)n1)n2-c1nnnn1C` [Compound 7, tert-butyl (6-(((4-(allyloxy)-1-(1-methyl-1H-tetrazol-5-yl)-1H-benzo[d]imidazol-2-yl)oxy)methyl)pyridin-2-yl)carbamate] registered an EC50 in the assay on Phytophthora cactorum of less than 2 µg/mL. Moreover, the inhibition of growth at 2 ppm with Pythium ultimum is more than 99%.

In the assay with Phytophthora cactorum, `COc1cccc2c1nc(OCc1cccc(NC(=O)OC(C)(C)C)n1)n2-c1nnnn1C` [Compound 8] returned an EC50 of less than 2 µg/mL. Further, in the assay on Pythium ultimum, the inhibition of growth at 2 ppm is more than 99%.

With `CC(C)CCC(=O)Nc1cccc(COc2nc3c(Cl)cccc3n2-c2nnnn2C)n1` [Compound 9], in the assay with Phytophthora cactorum, the 50% effective concentration (EC50) is less than 2 µg/mL. Besides, the inhibition of growth at 2 ppm in the assay on Pythium ultimum was more than 99%.

On to `Cn1nnnc1-n1c(OCc2cccc(NC(=O)C3CCCC3)n2)nc2c(Cl)cccc21` [Compound 10], for which the EC50 in the assay with Phytophthora cactorum is less than 2 µg/mL. In the assay with Pythium ultimum, the inhibition of growth at 2 ppm was more than 99%.

`C=CCOC(=O)Nc1cccc(COc2nc3c(Cl)cccc3n2-c2nnnn2C)n1` [Compound 11] came in with an EC50 with Phytophthora cactorum of less than 2 µg/mL. Besides, in the assay with Pythium ultimum, the inhibition of growth at 2 ppm was more than 99%.

`CCCC(=O)Nc1cccc(COc2nc3c(Cl)cccc3n2-c2nnnn2C)n1` [Compound 12] returned an EC50 with Phytophthora cactorum of less than 2 µg/mL. For the same compound, in the assay on Pythium ultimum, the inhibition of growth at 2 ppm was more than 99%.

In turn, `CCCCOC(=O)Nc1cccc(COc2nc3c(Cl)cccc3n2-c2nnnn2C)n1` [Compound 13] yielded a half-maximal effective concentration (EC50) with Phytophthora cactorum of less than 2 µg/mL. For the same compound, the inhibition of growth at 2 ppm in the assay on Pythium ultimum is more than 99%.

Turning to `CCOC(=O)Nc1cccc(COc2nc3c(Cl)cccc3n2-c2nnnn2C)n1` [Compound 14], the EC50 with Phytophthora cactorum was not below 2 µg/mL. In the assay with Pythium ultimum, the inhibition of growth at 2 ppm was more than 99%.

In turn, `CC(C)COC(=O)Nc1cccc(COc2nc3c(Cl)cccc3n2-c2nnnn2C)n1` [Compound 15] registered an EC50 in the assay on Phytophthora cactorum of less than 2 µg/mL. The inhibition of growth at 2 ppm with Pythium ultimum was more than 99%.

`CCCOC(=O)Nc1cccc(COc2nc3c(Cl)cccc3n2-c2nnnn2C)n1` [Compound 16] displayed an EC50 with Phytophthora cactorum of less than 2 µg/mL. For the same compound, the inhibition of growth at 2 ppm with Pythium ultimum was more than 99%.

`Cn1nnnc1-n1c(OCc2cccc(NC(=O)OC3CCCC3)n2)nc2c(Cl)cccc21` [Compound 17] came in with a 50% effective concentration (EC50) in the assay on Phytophthora cactorum of less than 2 µg/mL. The inhibition of growth at 2 ppm in the assay with Pythium ultimum is more than 99%.

In the assay with Phytophthora cactorum, `CC(C)OC(=O)Nc1cccc(COc2nc3c(Cl)cccc3n2-c2nnnn2C)n1` [Compound 18] returned an EC50 not below 2 µg/mL. The inhibition of growth at 2 ppm in the assay with Pythium ultimum is more than 99%.

As to `Cn1nnnc1-n1c(OCc2cccc(NC(=O)C(C)(C)C)n2)nc2c(Cl)cccc21` [Compound 19], the concentration for a half-maximal effect (EC50) in the assay on Phytophthora cactorum was less than 2 µg/mL. Further, the inhibition of growth at 2 ppm in the assay with Pythium ultimum is more than 99%.

`Cc1cccc2c1nc(OCc1cccc(NC(=O)COc3ccccc3)n1)n2-c1nnnn1C` [Compound 20] yielded an EC50 with Phytophthora cactorum of less than 2 µg/mL. Further, the inhibition of growth at 2 ppm with Pythium ultimum was more than 99%.

`Cc1cccc2c1nc(OCc1cccc(NC(=O)OC(C)(C)C)n1)n2-c1nnnn1C` [Compound 21]: the EC50 with Phytophthora cactorum was less than 2 µg/mL. In the assay on Pythium ultimum, the inhibition of growth at 2 ppm is more than 99%.

Compound `Cn1nnnc1-n1c(OCc2cccc(NC(=O)OC(C)(C)C)n2)nc2c(O)cccc21` [Compound 22, tert-Butyl (6-(((4-hydroxy-1-(1-methyl-1H-tetrazol-5-yl)-1H-benzo[d]imidazol-2-yl)oxy)methyl)pyridin-2-yl)carbamate] showed an EC50 in the assay on Phytophthora cactorum not below 2 µg/mL. Besides, the inhibition of growth at 2 ppm in the assay with Pythium ultimum was 50 to 99%.

With `CCC(=O)Nc1cccc(COc2nc3c(Cl)cccc3n2-c2nnnn2C)n1` [Compound 23, N-(6-(((4-Chloro-1-(1-methyl-1H-tetrazol-5-yl)-1H-benzo[d]imidazol-2-yl)oxy)methyl)pyridin-2-yl)propionamide], the EC50 with Phytophthora cactorum is not below 2 µg/mL. The inhibition of growth at 2 ppm with Pythium ultimum was more than 99%.

Turning to `CC(C)C(=O)Nc1cccc(COc2nc3c(Cl)cccc3n2-c2nnnn2C)n1` [Compound 24], the 50% effective concentration (EC50) in the assay with Phytophthora cactorum was less than 2 µg/mL. For the same compound, in the assay on Pythium ultimum, the inhibition of growth at 2 ppm was more than 99%.

`CCCCC(=O)Nc1cccc(COc2nc3c(Cl)cccc3n2-c2nnnn2C)n1` [Compound 25] had an EC50 in the assay with Phytophthora cactorum of less than 2 µg/mL. The inhibition of growth at 2 ppm in the assay with Pythium ultimum is more than 99%.

For `CC(C)CC(=O)Nc1cccc(COc2nc3c(Cl)cccc3n2-c2nnnn2C)n1` [Compound 26], in the assay on Phytophthora cactorum, the EC50 was less than 2 µg/mL. Also, the inhibition of growth at 2 ppm in the assay on Pythium ultimum is more than 99%.

In the assay with Phytophthora cactorum, `CCC(CC)C(=O)Nc1cccc(COc2nc3c(Cl)cccc3n2-c2nnnn2C)n1` [Compound 27] showed an EC50 of less than 2 µg/mL. The inhibition of growth at 2 ppm with Pythium ultimum was more than 99%.

With `CC(=O)Nc1cccc(COc2nc3c(Cl)cccc3n2-c2nnnn2C)n1` [Compound 28], the EC50 in the assay on Phytophthora cactorum is not below 2 µg/mL. The inhibition of growth at 2 ppm in the assay with Pythium ultimum lay in the range of 50 to 99%.

In the case of `Cn1nnnc1-n1c(OCc2cccc(NC(=O)C(F)(F)F)n2)nc2c(Cl)cccc21` [Compound 29], in the assay on Phytophthora cactorum, the EC50 was less than 2 µg/mL. The inhibition of growth at 2 ppm in the assay with Pythium ultimum is more than 99%.

As for `Cn1nnnc1-n1c(OCc2cccc(NC(=O)CC(F)(F)F)n2)nc2c(Cl)cccc21` [Compound 30], the concentration for a half-maximal effect (EC50) with Phytophthora cactorum is less than 2 µg/mL. Also, the inhibition of growth at 2 ppm with Pythium ultimum was more than 99%.

In turn, `Cn1nnnc1-n1c(OCc2cccc(NC(=O)c3ccccc3)n2)nc2c(Cl)cccc21` [Compound 31] gave an EC50 in the assay with Phytophthora cactorum of less than 2 µg/mL. Moreover, the inhibition of growth at 2 ppm in the assay with Pythium ultimum was more than 99%.

The compound `Cn1nnnc1-n1c(OCc2cccc(NC(=O)C3CCC3)n2)nc2c(Cl)cccc21` [Compound 32] gave an EC50 in the assay on Phytophthora cactorum of less than 2 µg/mL. In addition, the inhibition of growth at 2 ppm with Pythium ultimum is more than 99%.

With `Cn1nnnc1-n1c(OCc2cccc(NC(=O)CC(C)(C)C)n2)nc2c(Cl)cccc21` [Compound 33], in the assay on Phytophthora cactorum, the EC50 was less than 2 µg/mL. The inhibition of growth at 2 ppm in the assay with Pythium ultimum is more than 99%.

`Cn1nnnc1-n1c(OCc2cccc(NC(=O)OC(C)(C)C)n2)nc2c(Br)cccc21` [Compound 34, tert-Butyl (6-(((4-bromo-1-(1-methyl-1H-tetrazol-5-yl)-1H-benzo[d]imidazol-2-yl)oxy)methyl)pyridin-2-yl)carbamate]: the EC50 in the assay on Phytophthora cactorum is less than 2 µg/mL. Also, the inhibition of growth at 2 ppm in the assay on Pythium ultimum is more than 99%.

In turn, `CCCCOC(=O)Nc1cccc(COc2nc3c(Br)cccc3n2-c2nnnn2C)n1` [Compound 35] registered an EC50 with Phytophthora cactorum of less than 2 µg/mL. Further, the inhibition of growth at 2 ppm with Pythium ultimum was more than 99%.
